Consider 7 molecules from PubChem BioAssay AID2060491 (Molecular Pharmacology Branch, DTP, NCI, 2025).

For the assay, the system named is 857933-349-R-J2-PDC complex spheroids, viability. In words: Anticancer human tumor 857933-349-R-J2-PDC patient-derived colon adenocarcinoma cell line growth inhibition [GQUAD]. To be noted: for viability, T/C: stronger effect = lower value. From the text: DNA G-quadruplex Stabilizer Agents in Combinations in Complex Spheroids
A high-throughput screen of multi-cell type tumor spheroids was designed to identify active combinations of DNA G-quadruplex stabilizer agents and targeted small molecules. Complex spheroids include a stromal component modeled by human endothelial cells (HUVEC) and fibroblasts modeled by human mesenchymal stem cells (MSCs). The concentration ranges selected for each drug and investigational agent were based upon clinically achievable concentrations if the clinical Cmax of the agent was known.
Compounds. The drugs and investigational agents: pidnarulex (CX-5461; NSC782164), APTO-253 (NSC789042), BRACO-19 (NSC847499), peposertib (NSC802822), ceralasertib (NSC780249), elimusertib (NSC800525), camonsertib (NSC841442), AZD-1390 (NSC803789), olaparib (NSC753686), talazoparib (NSC767125), ART-558 (NSC835418), sotorasib (NSC818433), MRTX-1133 (NSC836407), SN-38 (NSC673596), topotecan (NSC609699), etoposide (NSC141540), doxorubicin (NSC123127), gemcitabine (NSC613327), 5-fluorouracil (NSC19893), paclitaxel (NSC125973), vemurafenib (NSC761431), panobinostat (NSC761190), R-306465 (JNJ-16241199; NSC773264), adavosertib (NSC754352), TP-3654 (NSC805149), carboplatin (NSC241240), KSQ-4279 (NSC840948), and staurosporine (NSC755774) were obtained from the National Cancer Institute (NCI) Developmental Therapeutics Program Chemical Repository (34). The FDA-approved anticancer drug set is available from the NCI Developmental Therapeutics Program. […] The stock solutions were prepared in dimethyl sulfoxide (DMSO, Sigma-Aldrich, St. Louis, MO, cat. D2650) at 800-fold the tested concentration and stored at -70 degrees C prior to their use. All drugs and investigational agents were tested over a range starting from a high concentration at or near the clinical Cmax and decreasing in half-log increments. If the clinical Cmax for an agent had not been determined, the highest concentration tested was 10 microM.
2.3 Cell Culture. All cells were maintained in an incubator at 37 degrees C and 5% CO2 with 95% humidity. The PDC lines were cultured according to standard operating procedures established by the NCI PDMR. All PDCs were thawed and cultured in Matrigel-coated flasks prepared with a working solution of 1X Ham's F-12 nutrient mix, without supplementation (Invitrogen, cat. 11765054), 100 U/mL penicillin-streptomycin (Invitrogen, cat. 15140122), and 2.5% Matrigel (Corning Inc., cat. 354248) for the first three passages. The 857933-349-R-J2-PDC line was cultured in 6C/Colon 1B media, which includes advanced DMEM/F-12 (Thermo Fisher Scientific, cat. 12634028), 10 mM HEPES (Thermo Fisher Scientific, cat. 15630080), 1X GlutaMAX supplement (Thermo Fisher Scientific, cat. 35050061), 0.1 mg/mL primocin (InvivoGen, cat. ant-pm-2), 10% defined fetal bovine serum, heat inactivated (HyClone Laboratories Inc., cat. SH30070.03HI), 50% L-WRN conditioned media (ATCC, cat. CRL-3276), 1.25 mM N-Acetyl-L-cysteine (Sigma-Aldrich, cat. A9165), 10 mM nicotinamide (Sigma-Aldrich, cat. N0636), 1X B-27 supplement (Thermo Fisher Scientific, cat. 17504044), 1X N-2 supplement (Thermo Fisher Scientific, cat. 17502048), 10 microM Y-27632 dihydrochloride (Tocris Bioscience, cat. 1254), and 50 ng/mL human EGF recombinant protein (Thermo Fisher Scientific, cat. PHG0311). The 485176-168-R4-J1-PDC line was cultured in Panc media, which includes all 6C/Colon 1B media components plus 100 ng/mL human FGF-10 (Thermo Fisher Scientific, cat. 100-26), 500 nM SB-431542 (Selleckchem, cat. S1067), and gastrin (Tocris, cat. 3006).
[…]

SMILES strings stand for the structures. Values joined by “and” are separate entries in the source; they are usually repeats but may differ in a detail not shown here. Equal entries are not always repeated.
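Also: spheroids exposed to compounds for one week before readout.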
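For viability, T/C in this document: percent viability relative to vehicle DMSO wells taken as 100%.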

As to `Cn1ncnc1[C@H]1c2n[nH]c(=O)c3cc(F)cc(c23)N[C@@H]1c1ccc(F)cc1`, the viability, T/C (usually the ratio of treated to control) (compound 0.000999 µM) was 102% and 99.8% and 101%; the viability, T/C (compound 0.00316 µM) was 99.8% and 104% and 94%; the viability, T/C (compound 0.00999 µM) is 99.8% and 105% and 98.9%; the viability, T/C (compound 0.0316 µM) was 94.3% and 104% and 94.9%; the viability, T/C (compound 0.0999 µM) was 97.9% and 101% and 106%; the viability, T/C (compound 0.316 µM) is 96.8% and 101% and 85.9%. The IC50 – broadly, the midpoint of a concentration-inhibition curve – (curve of compound) was > 316 nM.
As to `CCCS(=O)(=O)Nc1ccc(F)c(C(=O)c2c[nH]c3ncc(-c4ccc(Cl)cc4)cc23)c1F`, the viability, T/C was 104% and 111% and 98.5% (compound 0.0316 µM); 97.2% and 102% and 92% (compound 0.1 µM); 97.4% and 105% and 95.5% (compound 0.316 µM); 102% and 101% and 96.5% (compound 1 µM); 84.9% and 90.6% and 95.8% (compound 3.16 µM); 4.82% and 5.71% and 6.52% (compound 10 µM). Also, the IC50 (curve of compound) was 5230 nM and 5490 nM and 5700 nM.
With `Cc1cnc(CNC(=O)c2c(=O)c3ccc(N4CCCN(C)CC4)nc3n3c2sc2ccccc23)cn1`, the viability, T/C runs as follows: (compound 0.0316 µM) 92.5% [middle of 12 runs]; (compound 0.1 µM) 69.2% [middle of 11 runs]; (compound 0.316 µM) 26.9% [middle of 12 runs]; (compound 1 µM) 5.05% [middle of 12 runs]; (compound 3.16 µM) 2.9% [middle of 12 runs]; (compound 10 µM) 1.41% [middle of 12 runs]. Moreover, the IC50 (compound alone, run of 02/20/2024) was 169 nM [middle of 10 runs].
As for `COc1cccc2c1C(=O)c1c(O)c3c(c(O)c1C2=O)CC(O)(C(=O)CO)CC3OC1CC(N)C(O)C(C)O1` (stereo not drawn), the viability, T/C is, setting by setting: (compound 0.0316 µM) 84.6% and 101% and 86.6%; (compound 0.1 µM) 60% and 94.5% and 51.8%; (compound 0.316 µM) 57.6% and 71.5% and 49.7%; (compound 1 µM) 43.2% and 45.9% and 44.8%; (compound 3.16 µM) 7.65% and 8.98% and 6.13%; (compound 10 µM) 0.27% and 0.59% and 0.13%. Further, the IC50 (curve of compound) is 415 nM and 751 nM and 277 nM.
For `COc1cc(C2c3cc4c(cc3C(OC3OC5COC(C)OC5C(O)C3O)C3COC(=O)C23)OCO4)cc(OC)c1O` (stereo not drawn), the viability, T/C was 86.8% and 82.9% and 104% (compound 0.0316 µM); 53.1% and 58.3% and 93.6% (compound 0.1 µM); 55.8% and 48.1% and 82.6% (compound 0.316 µM); 48.6% and 52.9% and 78.4% (compound 1 µM); 42.6% and 39.1% and 59.5% (compound 3.16 µM); 27.6% and 27.1% and 41.6% (compound 10 µM).
As to `CCc1c2c(nc3ccc(O)cc13)-c1cc3c(c(=O)n1C2)COC(=O)[C@]3(O)CC` + Cc1[nH]c2ccc(F)cc2c1-c1nc2c3cccnc3c3ncccc3c2[nH]1, the IC50 came to 8.64 nM (curve of first compound, second compound 0.0316 µM); 5.42 nM (curve of first compound, second compound 0.1 µM); 9.75 nM (curve of first compound, second compound 0.316 µM); 8.5 nM (curve of first compound, second compound 1 µM); 9.46 nM (curve of first compound, second compound 3.16 µM); 8.53 nM (curve of first compound, second compound 10 µM). The viability, T/C was 79.3% (second compound 0.0316 µM, first compound 0.000999 µM); 63% (second compound 0.0316 µM, first compound 0.00316 µM); 51.5% (second compound 0.0316 µM, first compound 0.00999 µM); 24.8% (second compound 0.0316 µM, first compound 0.0316 µM); 14.7% (second compound 0.0316 µM, first compound 0.0999 µM); 12.2% (second compound 0.0316 µM, first compound 0.316 µM). Moreover, the viability, T/C runs as follows: (second compound 0.1 µM, first compound 0.000999 µM) 80.2%; (second compound 0.1 µM, first compound 0.00316 µM) 54.5%; (second compound 0.1 µM, first compound 0.00999 µM) 45.5%; (second compound 0.1 µM, first compound 0.0316 µM) 26.5%; (second compound 0.1 µM, first compound 0.0999 µM) 15.3%; (second compound 0.1 µM, first compound 0.316 µM) 11.1%. Moreover, the viability, T/C by setting is: (second compound 0.316 µM, first compound 0.000999 µM) 73.5%; (second compound 0.316 µM, first compound 0.00316 µM) 72.6%; (second compound 0.316 µM, first compound 0.00999 µM) 47.9%; (second compound 0.316 µM, first compound 0.0316 µM) 25%; (second compound 0.316 µM, first compound 0.0999 µM) 15.4%; (second compound 0.316 µM, first compound 0.316 µM) 11.4%. Besides, the viability, T/C reads like this: (second compound 1 µM, first compound 0.000999 µM) 74.8%; (second compound 1 µM, first compound 0.00316 µM) 63.2%; (second compound 1 µM, first compound 0.00999 µM) 49.8%; (second compound 1 µM, first compound 0.0316 µM) 24.4%; (second compound 1 µM, first compound 0.0999 µM) 16.6%; (second compound 1 µM, first compound 0.316 µM) 14.7%. The viability, T/C reads like this: (second compound 3.16 µM, first compound 0.000999 µM) 80.5%; (second compound 3.16 µM, first compound 0.00316 µM) 60.1%; (second compound 3.16 µM, first compound 0.00999 µM) 55.9%; (second compound 3.16 µM, first compound 0.0316 µM) 27.4%; (second compound 3.16 µM, first compound 0.0999 µM) 15.7%; (second compound 3.16 µM, first compound 0.316 µM) 13%. In addition, the viability, T/C by setting is: (second compound 10 µM, first compound 0.000999 µM) 80.7%; (second compound 10 µM, first compound 0.00316 µM) 54.5%; (second compound 10 µM, first compound 0.00999 µM) 59.2%; (second compound 10 µM, first compound 0.0316 µM) 28.1%; (second compound 10 µM, first compound 0.0999 µM) 18.7%; (second compound 10 µM, first compound 0.316 µM) 14.6%.
Regarding `O=C(c1cc(Cc2n[nH]c(=O)c3ccccc23)ccc1F)N1CCN(C(=O)C2CC2)CC1`, the viability, T/C was 99.4% and 111% and 122% (compound 0.0316 µM); 104% and 105% and 95.9% (compound 0.1 µM); 90.5% and 106% and 98.7% (compound 0.316 µM); 92.2% and 107% and 88.4% (compound 1 µM); 108% and 98.6% and 97% (compound 3.16 µM); 101% and 106% and 96% (compound 10 µM). The 50% inhibitory concentration (IC50) (curve of compound) was > 10000 nM.
